# From patent publication US6900315B2, “2-amino-9H-purin-9-yl compounds and methods for inhibiting/treating HIV infections and AIDS related symptoms” (Yale University, priority 2001, dated 2005)
# Where two headings read alike, the source gives them in different places.
# Experiments:
# [1] = test system: MT-2; assay: Toxicity, dye based cell growth assay in absence of HIV, MT-2; conditions: Homo sapiens, MT2, 120 h, read-out: IC50 (inhibited 50% of the cell growth)
# Protocol: (§1) To determine the toxicity of the compounds to various cell lines (Table 1, below), a similar dye based assay is performed in the absence of HIV. The toxicity of the compounds alone therefore was determined.
# [2] = test system: KB; assay: Toxicity, dye based cell growth assay, KB; conditions: Homo sapiens, 120 h
# Protocol: as §1
# [3] = test system: HIV; assay: Effect of mycophenolic acid on anti-HIV activity of nucleoside analogs in cell culture; assay type: cell-based
# Protocol: FIG. 2 presents table 6 and indicates the effect that mycophenolic acid has on the anti-HIV activity of the indicated nucleoside analogs. In the experiment depicted in this Figure, 1×10^5 cells/ml were incubated with or without 200 nM mycophenolic acid for 30 minutes and then added to wells containing nucleoside analogs to test for toxicity and anti-HIV activity. The date presented is representative of at least two independent trials.
# In cell culture, the mechanism of activation for D4G prodrugs has been investigated with the initial model compound cyclo D4G. […] Experiments with mycophenolic acid, an inhibitor of inosine monophosphate (IMP) dehydrogenase have been used to study the guanine dependence of activation for cyclo D4G. The addition of mycophenolic acid results in an increase in cellular IMP and a decrease in GMP and all other guanine containing nucleosides and nucleotides. […]. The data which is presented is representative of at least two independent trials. Furthermore, cyclo D4G's activity could be rescued by the addition of guanine to the media (data not shown).
# [4] = test system: HIV IIIB; assay: Anti-HIV activity in MT-2 cells infected with HIV IIIB, MTT dye cell viability; assay type: cell-based; conditions: for EC50: Human immunodeficiency virus 1, IIIB, MT2, 120 h, read-out: EC50 (concentration necessary to save 50% of the cells); for anti-HIV activity: summary of Table 1
# Protocol: To assess the ability of the compounds according to the present invention to inhibit viral infection relative to other compounds experiments were performed in the MT-2 cell line, as previously described by Larder, et al., Antimicrobial Agents & Chemotherapy, vol. 34, 436 (1990). […] Cells were infected at an initial multiplicity of infection (MOI) of 0.1 and grown for 5 days. Cell viability was assessed by the use of dye metabolized by viable cells.
# [5] = test system: HEP-G2; assay: Toxicity, dye based cell growth assay, HEP-G2; conditions: Homo sapiens, HepG2, 120 h, read-out: IC50 (inhibited 50% of the cell growth)
# Protocol: as §1
# [6] = test system: HeLa; assay: Toxicity, dye based cell growth assay, HeLa; conditions: Homo sapiens, 120 h
# Protocol: as §1
# [7] = test system: CEM; assay: Toxicity, dye based cell growth assay, CEM; conditions: Homo sapiens, CCRF-CEM, 120 h, read-out: IC50 (inhibited 50% of the cell growth)
# Protocol: as §1
# [8] = test system: HIV; assay: Anti-HIV drug combination (synergy, isobologram of FEC50) in cell culture; assay type: cell-based; conditions: for anti-HIV interaction in combination with AZT: FIG. 4, D4T with AZT data not shown
# Protocol: Points on this line represent the compounds working independently.
# In an attempt to understand how D4G prodrugs of the present invention would interact with other clinically approved compounds, experiments were performed with drug combinations. […] Points on the line represent two compounds working independently. […] See, Bridges, et al., Biochem. Pharmacol., 51, 731 (1996) and Dutschman, et al., Antimicro. Agents Chemother. 42, 1799 (1998).
# [9] = test system: mitochondrial DNA in CEM cells; assay: Mitochondrial toxicity: ratio of mitochondrial DNA to Alu repeat in CEM cells; assay type: cell-based; conditions: 8 days
# Description: After 8 days of growth the cells were lysed and probed for the amount of mitochondrial DNA and normalized for differences in the amount of total DNA by probing for the Alu repeat. By comparing the amount of mitochondrial DNA to the amount of Alu repeat the % decrease in mitochondrial DNA in the presence of various concentrations of drug can be obtained. All experiments were done in triplicate. Techniques which are presented here have been previously described in Chen and Cheng, J. Biol. Chem., vol. 264, 11934-7 (1989).
# [10] = biological target: T1, mitochondrial polymerase gamma (Homo sapiens, UniProt P54098); assay: Nucleotide incorporation by mitochondrial polymerase gamma into an elongating DNA strand; assay type: biochemical
# T1 sequence (P54098 1-1239): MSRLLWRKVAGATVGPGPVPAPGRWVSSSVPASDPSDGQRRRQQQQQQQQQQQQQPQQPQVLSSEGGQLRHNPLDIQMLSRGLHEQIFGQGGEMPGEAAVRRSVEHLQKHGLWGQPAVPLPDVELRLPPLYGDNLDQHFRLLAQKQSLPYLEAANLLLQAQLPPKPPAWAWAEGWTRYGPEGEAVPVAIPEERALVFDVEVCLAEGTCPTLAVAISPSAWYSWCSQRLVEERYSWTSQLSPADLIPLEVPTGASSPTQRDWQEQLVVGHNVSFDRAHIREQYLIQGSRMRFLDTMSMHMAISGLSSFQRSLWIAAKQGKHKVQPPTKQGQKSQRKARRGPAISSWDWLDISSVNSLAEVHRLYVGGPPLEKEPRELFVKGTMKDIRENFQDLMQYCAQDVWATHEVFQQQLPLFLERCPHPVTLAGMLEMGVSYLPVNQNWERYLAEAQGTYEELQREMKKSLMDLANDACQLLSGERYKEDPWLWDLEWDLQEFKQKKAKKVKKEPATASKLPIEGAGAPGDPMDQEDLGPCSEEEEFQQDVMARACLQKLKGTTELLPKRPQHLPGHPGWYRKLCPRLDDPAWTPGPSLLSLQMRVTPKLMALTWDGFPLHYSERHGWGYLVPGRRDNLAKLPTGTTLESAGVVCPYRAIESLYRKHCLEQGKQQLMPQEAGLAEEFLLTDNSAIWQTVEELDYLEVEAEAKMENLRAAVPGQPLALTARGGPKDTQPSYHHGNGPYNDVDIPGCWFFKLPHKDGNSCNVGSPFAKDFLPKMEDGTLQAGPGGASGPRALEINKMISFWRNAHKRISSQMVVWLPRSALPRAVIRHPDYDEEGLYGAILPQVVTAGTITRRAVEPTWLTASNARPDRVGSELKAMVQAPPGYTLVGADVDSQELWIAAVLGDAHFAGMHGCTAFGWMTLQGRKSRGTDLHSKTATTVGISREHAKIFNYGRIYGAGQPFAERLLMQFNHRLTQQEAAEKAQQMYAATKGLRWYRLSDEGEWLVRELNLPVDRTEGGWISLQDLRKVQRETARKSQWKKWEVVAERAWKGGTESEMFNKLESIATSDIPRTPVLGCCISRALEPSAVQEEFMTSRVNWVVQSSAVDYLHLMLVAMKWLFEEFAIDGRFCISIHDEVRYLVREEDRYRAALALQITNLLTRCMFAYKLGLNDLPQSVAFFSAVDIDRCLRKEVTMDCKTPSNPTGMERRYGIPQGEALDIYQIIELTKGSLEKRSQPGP
# [11] = biological target: T1, mitochondrial polymerase gamma; assay: Exonuclease removal from chain terminated primer template by mitochondrial polymerase gamma; assay type: biochemical
# [12] = biological target: T2, wild type HIV-1 reverse transcriptase (Human immunodeficiency virus type 1 group M subtype B, UniProt P04585); assay: Kinetics of nucleotide incorporation by wild type HIV-1 reverse transcriptase; assay type: biochemical; set-up: kpol/Kd: unit not given here
# T2 construct: a mixture of 100 nM HIV-1 reverse transcriptase and 300 nM primer/template
# Protocol: Continued research on the guanosine prodrug approach for making D4G a viable anti-HIV agent has yielded a number of new findings. In the present example, enzyme kinetics for the incorporation of the active metabolites of guanosine prodrugs with wild type HIV-1 reverse transcriptase was determined. In this experiment, a mixture of 100 nM HIV-1 reverse transcriptase and 300 nM primer/template in which the correct base incorporation is a guanine nucleotide was rapidly mixed with nucleotide in the presence of 50 mM Tris, 50 mM NaCl and 10 mM MgCl2 for a set amount of time and then the reaction was stopped by the addition 300 mM of EDTA.
# [13] = test system: HIV; conditions: cited from earlier work
# [14] = test system: HIV; conditions: pairs: D4T and AZT, 3TC and ddC, FD4C and 3TC, abacavir and cyclo D4G; Bridges et al., Dutschman et al.; cited from earlier work
# [15] = MT-2, HTLV infected T cell line, 5 days
# [16] = read-out: IC50 (inhibited 50% of the cell growth), oral carcinoma, 5 days
# [17] = HEP-G2, hepatoma cell line, 5 days
# [18] = read-out: IC50 (inhibited 50% of the cell growth), cervical cancer cell line, 5 days
# [19] = mitochondrial polymerase gamma, incorporation
# [20] = Table 4, primer/template DNA/DNA, RT WT
# [21] = Table 4, primer/template DNA/RNA, RT WT
# [22] = read-out: IC50 (inhibited 50% of the cell growth)
smiles,measurement,setting,value
"Nc1nc(NC2CC2)c2ncn([C@H]3C=C[C@@H](CO)O3)c2n1 [Cd4G, 2-Amino-6-cyclopropylamino-9-(2,3-dideoxy-β-D-glycero-pent-2-enofuranosyl)purine]",IC50,[1]; [15],100 ± 22 µM
same,IC50,[2]; [16],> 500 µM
same,fold less active (anti-HIV) in the presence of mycophenolic acid,"[3]; 200 nM mycophenolic acid, 30 minutes, 1×10^5 cells/ml",3 fold
same,anti-HIV activity on addition of guanine to the media,"[3]; in the presence of mycophenolic acid, data not shown",rescued
same,EC50,[4],8 µM
same,anti-HIV activity,[4],strong anti-HIV activity
same,IC50,[5]; [17],> 500 µM
same,IC50,[6]; [18],500 ± 33 µM
same,IC50,"[7]; CEM, T cell line, 5 days",200 ± 31 µM
same,anti-HIV interaction in combination with 3TC,[8]; FIG. 3 and FIG. 4,synergistic
same,anti-HIV interaction in combination with D4T,[8]; FIG. 4,somewhat synergistic
same,anti-HIV interaction in combination with AZT,[8],synergistic
same,mitochondrial toxicity,[9]; human,lower mitochondrial toxicity than D4T
same,% Control (mtDNA/Alu),"[9]; human, 1 μM",99%
same,Ration of mtDNA/Alu,"[9]; human, 1 μM",1.06 ± 0.11
same,% Control (mtDNA/Alu),"[9]; human, 10 μM",84%
same,Ration of mtDNA/Alu,"[9]; human, 10 μM",0.90 ± 0.06
same,% Control (mtDNA/Alu),"[9]; human, 200 μM",43%
same,Ration of mtDNA/Alu,"[9]; human, 200 μM",0.46 ± 0.06
Nc1nc2c(ncn2[C@H]2C=C[C@@H](COP(=O)(O)OP(=O)(O)OP(=O)(O)O)O2)c(=O)[nH]1 [D4GTP],Toxicity Index,"[10]; fold increase in time for mitochondrial replication, 1 = no toxicity",320
same,Kd,[10]; [19],0.61 ± 0.13 µM
same,kpol,[10]; [19],0.27 ± 0.02 s⁻¹
same,kpol/Kd,[10]; [19],450000 ± 99000 M⁻¹ s⁻¹
same,kexo,[11],0.00046 ± 0.000021 s⁻¹
same,Kd,"[12]; Table 3, substrate DNA/DNA",11 ± 2 µM
same,Selectivity = (kpol/Kd)dGTP/(kpol/Kd)analog,"[12]; Table 3, substrate DNA/DNA",1.5
same,kpol,"[12]; Table 3, substrate DNA/DNA",11 ± 1 s⁻¹
same,kpol/Kd,"[12]; Table 3, substrate DNA/DNA",1.1 ± 0.26
same,Kd,"[12]; Table 3, substrate DNA/RNA",9.5 ± 1.1 µM
same,Selectivity = (kpol/Kd)dGTP/(kpol/Kd)analog,"[12]; Table 3, substrate DNA/RNA",2
same,kpol,"[12]; Table 3, substrate DNA/RNA",13 ± 0.5 s⁻¹
same,kpol/Kd,"[12]; Table 3, substrate DNA/RNA",1.4 ± 0.2
same,Efficiency,[12]; [20],1.1 ± 0.3 s^−1μM^−1
same,Kd,[12]; [20],11 ± 2 µM
same,Selectivity = efficiency dGTP/efficiency analog,[12]; [20],2
same,kpol,[12]; [20],11 ± 1 s⁻¹
same,Efficiency,[12]; [21],1.4 ± 0.2 s^−1μM^−1
same,Kd,[12]; [21],9.5 ± 1.1 µM
same,Selectivity = efficiency dGTP/efficiency analog,[12]; [21],2
same,kpol,[12]; [21],13 ± 0.5 s⁻¹
Nc1nc2c(ncn2[C@H]2C=C[C@@H](CO)C2)c(=O)[nH]1 [carbovir],previously reported activity against HIV,[13],significant activity
"Nc1nc2c(ncn2[C@H]2C=C[C@@H](CO)O2)c(=O)[nH]1 [d4G, 9-(2,3-Dideoxy-β-D-glycero-pent-2-enofuranosyl)guanine]",IC50,[1]; [15],40 ± 9 µM
same,IC50,[2]; [16],> 500 µM
same,previously reported activity against HIV,[13],inactive
same,anti-HIV activity,[4],complete inactivity
same,IC50,[5]; [17],280 ± 19 µM
same,IC50,[6]; [18],200 ± 13 µM
same,IC50,"[7]; CEM, T cell line, 5 days",70 ± 11 µM
same,% Control (mtDNA/Alu),"[9]; human, 1 μM",105%
same,Ration of mtDNA/Alu,"[9]; human, 1 μM",1.12 ± 0.17
same,% Control (mtDNA/Alu),"[9]; human, 10 μM",106%
same,Ration of mtDNA/Alu,"[9]; human, 10 μM",1.14 ± 0.07
"Cc1cn([C@H]2C=C[C@@H](CO)O2)c(=O)[nH]c1=O [d4T, 2′,3′-didehydro-2′,3′-dideoxythymidine]",IC50,[1],> 100 µM
same,IC50,[2]; [22],450 ± 47 µM
same,EC50,[4],3 ± 0.7 µM
same,IC50,[5],390 ± 26 µM
same,IC50,[6]; [22],480 ± 31 µM
same,IC50,[7],190 ± 30 µM
same,anti-HIV interaction in combination with AZT,[8],only additive
same,anti-HIV interaction of two analogs of the same base,[14],not synergistic
same,% Control (mtDNA/Alu),"[9]; compound 1 μM, CEM cells",110%
same,Ration of mtDNA/Alu,"[9]; compound 1 μM, CEM cells",1.18 ± 0.03
same,% Control (mtDNA/Alu),"[9]; compound 10 μM, CEM cells",94%
same,Ration of mtDNA/Alu,"[9]; compound 10 μM, CEM cells",1.00 ± 0.02
same,% Control (mtDNA/Alu),"[9]; compound 200 μM, CEM cells",21%
same,Ration of mtDNA/Alu,"[9]; compound 200 μM, CEM cells",0.22 ± 0.03
